{"source": "patent US10154976B2", "about": "“System and method for delivering protease inhibitors” (Bordoloi Biotech, LLC, priority 2013, dated 2018)", "key": {"plasmin [1]": {"biological_target": "T1, plasmin (Homo sapiens, UniProt P00747)", "T1 sequence (P00747 97-580 limits assumed)": "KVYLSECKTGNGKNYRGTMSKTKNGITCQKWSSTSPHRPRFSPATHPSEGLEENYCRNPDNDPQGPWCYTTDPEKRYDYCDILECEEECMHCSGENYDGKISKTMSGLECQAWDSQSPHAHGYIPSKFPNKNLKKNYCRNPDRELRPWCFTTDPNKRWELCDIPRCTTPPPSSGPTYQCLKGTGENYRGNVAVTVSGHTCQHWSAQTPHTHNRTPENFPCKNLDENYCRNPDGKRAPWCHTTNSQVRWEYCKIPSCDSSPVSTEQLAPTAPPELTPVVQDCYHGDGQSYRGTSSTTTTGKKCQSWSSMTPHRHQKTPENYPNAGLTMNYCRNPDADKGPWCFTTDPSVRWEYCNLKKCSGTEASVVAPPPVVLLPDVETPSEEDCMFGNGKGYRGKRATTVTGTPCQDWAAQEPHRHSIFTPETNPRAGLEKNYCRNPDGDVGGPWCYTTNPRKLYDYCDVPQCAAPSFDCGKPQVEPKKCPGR", "T1 sequence (P00747 581-810 limits assumed)": "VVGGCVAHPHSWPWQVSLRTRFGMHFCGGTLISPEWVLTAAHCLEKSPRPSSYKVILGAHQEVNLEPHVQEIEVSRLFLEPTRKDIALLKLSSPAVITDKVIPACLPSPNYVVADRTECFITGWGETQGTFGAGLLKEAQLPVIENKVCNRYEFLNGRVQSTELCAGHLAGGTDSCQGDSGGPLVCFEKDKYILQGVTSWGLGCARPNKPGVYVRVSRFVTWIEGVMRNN", "assay": "Gravimetric fibrin clot degradation in plasmin medium freshly exchanged every 24 hours;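 further: fibrin clots formed from bovine fibrinogen and thrombin in 96-well plates, weighed each day after plasmin exposure, percent degradation relative to original clot weight, with PBS-only no-plasmin controls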", "description": "Also, a gravimetric in vitro method has been developed for a degradation study of a fibrin sealant in a plasmin medium at pH 7.4 and 37° C., where the medium has been freshly exchanged every twenty-four hours. Further investigation into the described degradation of fibrin sealant was undertaken for up to four consecutive days.\nA preparation of fibrinogen solution was prepared as described herein: • 1. Prepared a 10 percent solution of fibrinogen by dissolving 1.4 gms of bovine fibrinogen (Sigma F8630) in 14 ml of PBS. The solution was incubated at 37° C. with occasional swirling for 1 hour or till fibrinogen is completely dissolved. • 2. Molecular weight of TA is 157 grams. Three and half millimolar (0.55 mg TA/ml) suspension of 5 percent and 30 percent TA/PLGA were prepared by dispersing 50 mg of 5 percent loaded TA/PLGA and 8.3 mg of 30 percent loaded TA/PLGA in 4.5 ml of 10 percent fibrinogen solution, respectively, Table 7. A 10 percent Fibrinogen solution without TA was used as the negative control.\nNext, the fibrin clots in the ninety-six well plate were prepared as follows: • 1. Two and a half mg of Thrombin (600 units/mg) were dissolved in 1 ml of 375 mM CaCl2 solution in PBS (1500 U/ml). Seven microliters (10.5 U) were added to each well of the labeled 96 well plates. • 3. The fibrinogen solutions (with no TA/PLGA that is 0 percent, 5 percent loaded TA/PLGA and 30 percent loaded TA/PLGA) were mixed well and 100 microliter aliquots of 10 percent fibrinogen with or without TA/PLGA were added to the wells containing thrombin solution. […] The plates were incubated at 37° C. temperature for one hour. Final concentration of CaCl2 was 25 mM. The plate was stored at 4° C. overnight after the clot was formed.\nNext, plasmin was added to the fibrin clots to begin the enzymatic degradation of the fibrin clots by plasmin as described herein: • 1. A 300× plasmin solution was prepared by dissolving 500 micrograms in 500 microliter PBS. A 2× stock was prepared by diluting 150 times in PBS and adding 100 microliters to each well of the 96 well plate. The final 1× concentration was 3.3 micrograms/ml in the solution. A no-plasmin PBS only control was used for each condition. • 2. Incubation was at 37° C. At every 24 hours, the 96 well plate was centrifuged at 1,000 rpm for five minutes at room temperature. The supernatant plasmin solutions were aspirated out from each well with micropipette leaving the clots at the bottom of the well. • 3. A set of fibrin clots for each condition each day were taken out for measuring their degradation by plasmin by weighing. Fresh 100 microliter of plasmin solution was added to the rest of the clots. Fibrin clots were removed for measuring their weights each day until the clots were completely degraded in the wells.\nData was collected as follows: • 1. The clots were picked up from the well with a pair of forceps and weighed. The percent degradation was calculated by 100−(Average wt of the plasmin treated clot/actual weight of the clot×100). • 2. The clots were placed on a glass slide and photographed.\nThe clot or sealant was exchanged with fresh plasmin solution of 3.3 micrograms/ml every 24 hours.\nThe clots were irrigated and exchanged with fresh plasmin solution of 3.3 micrograms/ml every 24 hours."}, "fibrin clot": {"system": "fibrin clot", "assay": "Fibrin clot weight in a medium containing no plasmin (PBS only)", "parameters": "species or system Bovine", "conditions": "3 percent Ca-TA but without any plasmin; by Day-3 and Day-4", "experimental": "Incubated at 37 C. […] Repeated till the clots completely disappeared."}, "plasmin [2]": {"biological_target": "T1, plasmin", "assay": "Gravimetric fibrin clot degradation by plasmin, single 48 hour incubation", "type": "biochemical", "parameters": "TA delays the conversion of plasminogen to plasmin; purchased Sigma P1867"}, "[3]": {"conditions": "Day 0, Aprotinin 1500 KIU without PLGA-2, plasmin 3.3 micrograms/ml fresh every 24 hours, 37 C"}, "[4]": {"conditions": "Day 1, Aprotinin 1500 KIU without PLGA-2, plasmin 3.3 micrograms/ml fresh every 24 hours, 37 C"}, "[5]": {"conditions": "Day 2, Aprotinin 1500 KIU without PLGA-2, plasmin 3.3 micrograms/ml fresh every 24 hours, 37 C"}, "[6]": {"conditions": "Day 3, Aprotinin 1500 KIU without PLGA-2, plasmin 3.3 micrograms/ml fresh every 24 hours, 37 C"}, "[7]": {"conditions": "Day 4, Aprotinin 1500 KIU without PLGA-2, plasmin 3.3 micrograms/ml fresh every 24 hours, 37 C"}, "[8]": {"conditions": "Day 0, 3 percent Ca-TA (169.5 mE, 30 mg/ml), no PLGA, plasmin 3.3 μg/ml exchanged every 24 hours, pH 7.4, 37° C."}, "[9]": {"conditions": "Day 1, 3 percent Ca-TA, no PLGA, plasmin 3.3 μg/ml exchanged every 24 hours, pH 7.4, 37° C."}, "[10]": {"conditions": "Day 2, 3 percent Ca-TA, no PLGA, plasmin 3.3 μg/ml exchanged every 24 hours, pH 7.4, 37° C."}, "[11]": {"conditions": "Day 3, 3 percent Ca-TA, no PLGA, plasmin 3.3 μg/ml exchanged every 24 hours, pH 7.4, 37° C."}, "[12]": {"conditions": "Day 4, 3 percent Ca-TA, no PLGA, plasmin 3.3 μg/ml exchanged every 24 hours, pH 7.4, 37° C."}, "[13]": {"conditions": "TA 0.10 mM, plasmin 6.6 μg/ml, 37° C., 48 hours"}, "[14]": {"conditions": "TA 0.25 mM, plasmin 6.6 μg/ml, 37° C., 48 hours"}, "[15]": {"conditions": "TA 0.50 mM, plasmin 6.6 μg/ml, 37° C., 48 hours"}, "[16]": {"conditions": "TA 1.00 mM, plasmin 6.6 μg/ml, 37° C., 48 hours"}}}
{"compound": "Aprotinin", "values": [{"measurement": "Average Weight of fibrin clot", "setting": "plasmin [1]; [3]", "value": 109.13, "unit": "mg"}, {"measurement": "Fibrin clot weight, set A", "setting": "plasmin [1]; [3]", "value": 109.30, "unit": "mg"}, {"measurement": "Fibrin clot weight, set B", "setting": "plasmin [1]; [3]", "value": 108.50, "unit": "mg"}, {"measurement": "Fibrin clot weight, set C", "setting": "plasmin [1]; [3]", "value": 109.60, "unit": "mg"}, {"measurement": "percent degradation", "setting": "plasmin [1]; [3]", "value": 0.00, "unit": "%"}, {"measurement": "Average Weight of fibrin clot", "setting": "plasmin [1]; [4]", "value": 100.60, "unit": "mg"}, {"measurement": "Fibrin clot weight, set A", "setting": "plasmin [1]; [4]", "value": 100.20, "unit": "mg"}, {"measurement": "Fibrin clot weight, set B", "setting": "plasmin [1]; [4]", "value": 98.10, "unit": "mg"}, {"measurement": "Fibrin clot weight, set C", "setting": "plasmin [1]; [4]", "value": 103.50, "unit": "mg"}, {"measurement": "percent degradation", "setting": "plasmin [1]; [4]", "value": 7.82, "unit": "%"}, {"measurement": "Average Weight of fibrin clot", "setting": "plasmin [1]; [5]", "value": 15.03, "unit": "mg"}, {"measurement": "Fibrin clot weight, set A", "setting": "plasmin [1]; [5]", "value": 14.60, "unit": "mg"}, {"measurement": "Fibrin clot weight, set B", "setting": "plasmin [1]; [5]", "value": 13.80, "unit": "mg"}, {"measurement": "Fibrin clot weight, set C", "setting": "plasmin [1]; [5]", "value": 16.70, "unit": "mg"}, {"measurement": "percent degradation", "setting": "plasmin [1]; [5]", "value": 86.22, "unit": "%"}, {"measurement": "Average Weight of fibrin clot", "setting": "plasmin [1]; [6]", "value": 0.00, "unit": "mg"}, {"measurement": "Fibrin clot weight, set A", "setting": "plasmin [1]; [6]", "value": 0.00, "unit": "mg"}, {"measurement": "Fibrin clot weight, set B", "setting": "plasmin [1]; [6]", "value": 0.00, "unit": "mg"}, {"measurement": "Fibrin clot weight, set C", "setting": "plasmin [1]; [6]", "value": 0.00, "unit": "mg"}, {"measurement": "percent degradation", "setting": "plasmin [1]; [6]", "value": 100.00, "unit": "%"}, {"measurement": "Average Weight of fibrin clot", "setting": "plasmin [1]; [7]", "value": 0.00, "unit": "mg"}, {"measurement": "Fibrin clot weight, set A", "setting": "plasmin [1]; [7]", "value": 0.00, "unit": "mg"}, {"measurement": "Fibrin clot weight, set B", "setting": "plasmin [1]; [7]", "value": 0.00, "unit": "mg"}, {"measurement": "Fibrin clot weight, set C", "setting": "plasmin [1]; [7]", "value": 0.00, "unit": "mg"}, {"measurement": "percent degradation", "setting": "plasmin [1]; [7]", "value": 100.00, "unit": "%"}]}
{"compound": "NCC1CCC(C(=O)[O-])CC1.NCC1CCC(C(=O)[O-])CC1.[Ca+2]", "note": "(stereo not drawn) [Ca-TA, Calcium Tranexamate]", "values": [{"measurement": "increase in volume or weight of clot", "setting": "fibrin clot", "value": "more than 50%"}, {"measurement": "concentration adequate to give a stable clot without any significant degradation", "setting": "plasmin [2]; same manner as FIG. 5 with Ca-TA (FIG. 12)", "value": "about 0.1 mE"}, {"measurement": "increase in volume or weight of clot, of its original weight", "setting": "plasmin [1]; 3 percent Ca-TA, plasmin solution, on Day-1 and Day-2", "value": "more than 50%"}, {"measurement": "Average Weight of fibrin clot", "setting": "plasmin [1]; [8]", "value": 113.0, "unit": "mg"}, {"measurement": "Fibrin clot weight, set A", "setting": "plasmin [1]; [8]", "value": 113, "unit": "mg"}, {"measurement": "Fibrin clot weight, set B", "setting": "plasmin [1]; [8]", "value": 113, "unit": "mg"}, {"measurement": "Fibrin clot weight, set C", "setting": "plasmin [1]; [8]", "value": 113, "unit": "mg"}, {"measurement": "percent degradation", "setting": "plasmin [1]; [8]", "value": 0, "unit": "%"}, {"measurement": "Average Weight of fibrin clot", "setting": "plasmin [1]; [9]", "value": 179.7, "unit": "mg"}, {"measurement": "Fibrin clot weight, set A", "setting": "plasmin [1]; [9]", "value": 175, "unit": "mg"}, {"measurement": "Fibrin clot weight, set B", "setting": "plasmin [1]; [9]", "value": 160, "unit": "mg"}, {"measurement": "Fibrin clot weight, set C", "setting": "plasmin [1]; [9]", "value": 204, "unit": "mg"}, {"measurement": "Average Weight of fibrin clot", "setting": "plasmin [1]; [10]", "value": 185.0, "unit": "mg"}, {"measurement": "Fibrin clot weight, set A", "setting": "plasmin [1]; [10]", "value": 172, "unit": "mg"}, {"measurement": "Fibrin clot weight, set B", "setting": "plasmin [1]; [10]", "value": 174, "unit": "mg"}, {"measurement": "Fibrin clot weight, set C", "setting": "plasmin [1]; [10]", "value": 209, "unit": "mg"}, {"measurement": "Average Weight of fibrin clot", "setting": "plasmin [1]; [11]", "value": 123.3, "unit": "mg"}, {"measurement": "Fibrin clot weight, set A", "setting": "plasmin [1]; [11]", "value": 130, "unit": "mg"}, {"measurement": "Fibrin clot weight, set B", "setting": "plasmin [1]; [11]", "value": 100, "unit": "mg"}, {"measurement": "Fibrin clot weight, set C", "setting": "plasmin [1]; [11]", "value": 140, "unit": "mg"}, {"measurement": "Average Weight of fibrin clot", "setting": "plasmin [1]; [12]", "value": 0.0, "unit": "mg"}, {"measurement": "Fibrin clot weight, set A", "setting": "plasmin [1]; [12]", "value": 0, "unit": "mg"}, {"measurement": "Fibrin clot weight, set B", "setting": "plasmin [1]; [12]", "value": 0, "unit": "mg"}, {"measurement": "Fibrin clot weight, set C", "setting": "plasmin [1]; [12]", "value": 0, "unit": "mg"}, {"measurement": "percent degradation", "setting": "plasmin [1]; [12]", "value": 100, "unit": "%"}]}
{"compound": "NC[C@H]1CC[C@H](C(=O)O)CC1", "note": "[TA, trans-4-aminomethyl-cyclohexane-1-carboxylic acid]", "values": [{"measurement": "Average Weight of fibrin clot", "setting": "plasmin [2]; [13]", "value": 95.3, "unit": "mg"}, {"measurement": "Fibrin clot weight, set A", "setting": "plasmin [2]; [13]", "value": 96, "unit": "mg"}, {"measurement": "Fibrin clot weight, set B", "setting": "plasmin [2]; [13]", "value": 99, "unit": "mg"}, {"measurement": "Fibrin clot weight, set C", "setting": "plasmin [2]; [13]", "value": 91, "unit": "mg"}, {"measurement": "Percentage Degradation", "setting": "plasmin [2]; [13]", "value": 11.8, "unit": "%"}, {"measurement": "Average Weight of fibrin clot", "setting": "plasmin [2]; [14]", "value": 98.0, "unit": "mg"}, {"measurement": "Fibrin clot weight, set A", "setting": "plasmin [2]; [14]", "value": 108, "unit": "mg"}, {"measurement": "Fibrin clot weight, set B", "setting": "plasmin [2]; [14]", "value": 104, "unit": "mg"}, {"measurement": "Fibrin clot weight, set C", "setting": "plasmin [2]; [14]", "value": 82, "unit": "mg"}, {"measurement": "Percentage Degradation", "setting": "plasmin [2]; [14]", "value": 9.3, "unit": "%"}, {"measurement": "Average Weight of fibrin clot", "setting": "plasmin [2]; [15]", "value": 105.3, "unit": "mg"}, {"measurement": "Fibrin clot weight, set A", "setting": "plasmin [2]; [15]", "value": 102, "unit": "mg"}, {"measurement": "Fibrin clot weight, set B", "setting": "plasmin [2]; [15]", "value": 106, "unit": "mg"}, {"measurement": "Fibrin clot weight, set C", "setting": "plasmin [2]; [15]", "value": 108, "unit": "mg"}, {"measurement": "Percentage Degradation", "setting": "plasmin [2]; [15]", "value": 2.5, "unit": "%"}, {"measurement": "Average Weight of fibrin clot", "setting": "plasmin [2]; [16]", "value": 104.7, "unit": "mg"}, {"measurement": "Fibrin clot weight, set A", "setting": "plasmin [2]; [16]", "value": 100, "unit": "mg"}, {"measurement": "Fibrin clot weight, set B", "setting": "plasmin [2]; [16]", "value": 108, "unit": "mg"}, {"measurement": "Fibrin clot weight, set C", "setting": "plasmin [2]; [16]", "value": 106, "unit": "mg"}, {"measurement": "Percentage Degradation", "setting": "plasmin [2]; [16]", "value": 3.0, "unit": "%"}, {"measurement": "concentration sufficient for maximum activity (resistance against fibrin clot degradation by plasmin)", "setting": "plasmin [2]; TA concentration, plasmin 6.6 μg/ml, 37° C., 48 hours", "value": 0.1, "unit": "mM"}, {"measurement": "concentration sufficient for maximum activity, stated in ppm", "setting": "plasmin [2]; plasmin 6.6 μg/ml, 37° C., 48 hours", "value": 157, "unit": "ppm"}]}
